# Entries after “also recorded” stand apart in the source; their conditions may differ.
# Columns and labels:
# MCF-7 cells [1] = experiment: Estrogenicity assay, mitogenic endpoint (ESCREEN); conditions: ESCREEN; for Signs of estrogenicity (in words): chemical screened as potential modulator, tested alone; for Signs of toxicity at the highest concentrations (in words): highest concentrations shown in Figure 2, may indicate toxicity; for Signs of estrogenicity: Active at concentration: ‘Active’ = positive signal clearly distinguishable from assay variability and noise
# Experimental: The ESCREEN assay was performed using cloned MCF-7 cells (described in [6], gifted from A. Soto, Boston) and the established ESCREEN method was followed using an adapted 96-well format. Cells were cultured in DMEM (5% FCS). For experiments, cells were seeded in clear polystyrene 96 well plates at a density of 2,500 cells/well and allowed to attach for 24 hours before washing with rinse media (phenol red-free DMEM, no supplements). […] Test chemicals were dissolved in ethanol to give stock solutions of millimolar concentrations. Test and control solutions were diluted prior to application in dosing media (phenol red free DMEM, 10% charcoal-dextran stripped FCS). The final concentration of ethanol was 0.5% in test and control wells. […] At all stages, media removal from cells was carried out gently and in a controlled fashion by use of an electronic multichannel pipette set to the lowest speed possible. Controls were run as eight replicate wells per plate and compounds were tested in a dilution series comprising eight concentrations, each concentration tested in two replicate wells per plate. The plate layout was designed to reduce variation due to evaporation and spreading of test chemicals, and had been previously optimised in the laboratory. After application of test solutions, plates were incubated for 120 hours before fixation with 10% trichloroacetic acid and sulforhodamine B (SRB) staining to measure protein and allow the indirect quantification of cell number.
# (§1) Experiments were performed on different days meaning that results for different dilution series and different batches of the test chemicals were obtained on different days. Each single chemical was tested in three or more independent experiments. Use of normalisation meant that data from different experiments could be reliably combined and compared, as discussed previously. Data was expressed relative to the positive control, rather than as fold change from the vehicle response, for two reasons.
# (§2) Results from regression analysis for each test chemicals were used to predict the CA effect for fixed-ratio mixtures designed on 1) equi-effective concentrations (balanced design), 2) possible human serum levels (non-balanced design). The original mathematical formulation of CA that defines for a mixture composed of n components with concentration c1 of the first component, c2 of the second component, and cn for the n-th component a combination effect X is [drawing 1] (1) Here, ECX1, ECX1 …, ECXn are the concentrations of the individual components that on their own produce the same effect X as the mixture, [15] The quotients cn/ECXn are called toxic units and scale all compounds in the mixture relative to their toxicity. They can be interpreted as the contribution of the compound to the total mixture concentration that is expected to produce the mixture effect X. According to equation 1, a mixture effect for a pre-defined effect level X is described only implicitly. However, if the individual concentrations ci are expressed as relative fractions pi to the total mixture concentration ECxMix, then equation 1 can be re-arranged to [drawing 2] (2) which allows the direct calculation of the mixture concentration that is expected to produce the mixture effect X. To form a prediction curve, equation 2 is iterated through for various effect levels resulting in sets of effects and their associated predicted mixture concentration which are then plotted to produce a graph of the effect prediction.
# Both equations 1 and 2 require knowledge of the concentration of each mixture component that on its own produces the effect magnitude under consideration. For this reason, these equations cannot be used for predicting mixture effects that exceed the maximal effect of the least efficacious component, because those effect concentrations cannot be defined.
# MCF-7 cells [2] = experiment: Modulation studies (ESCREEN only): effect of potential modulators on the response evoked by a reference mixture of estrogens (REFmix); type: cell-based, human; conditions: for Modulation of the REFmix effect (in words) / Concentration at which complete suppression (full inhibition) of REFmix effect was reached: ESCREEN; for Observed modulation: ESCREEN response to REFmix (Mixture 3d, ca. 50% effect), screening, one experiment; for Concentration at which complete suppression (full inhibition) of REFmix effect was reached: individual modulator screening
# Source text: Modulation studies comprised screening of individual modulators in low power experiments accompanied by parallel testing of an equimolar mixture of all modulators. This combination of low power screening and mixture testing provides the opportunity to assess a high number of chemicals (16 in this case) without a prohibitive amount of experimental effort. In this case the effects of 16 modulators could be evaluated using a total of 19 experimental plates (16 for screening and 3 for mixture testing).
# To normalize for small changes in the absolute value of the positive control and the control response to the selected REFmix concentration, the response evoked by the REFmix control on each plate was defined as the 50% effect and all modulator study results are normalized to that value.
# A mixture of modulators (MODmix) was also tested and was composed with a fixed ratio of equimolar concentrations, since the activity of each modulator was not known at the time of designing the mixture.
# In these modulator studies, we examined 16 single chemicals (listed in Table 7) and an equimolar mixture of all 16 components for their ability to modulate the effects of a reference mixture (REFmix) which contained 14 food additives and contaminants (Table 1, Mixture 3d). […] Single chemicals were tested individually in single experiments (screening) and then a mixture composed using a fixed ratio of equal molarities was subjected to repeated testing.
# Figure 5 Results of modulation studies. […] Experimental results are shown as grey circles representing each replicate (duplicate testing within the assay) and obtained in three independent (A) or one (B–Q) experiment (s). Experimental results were normalized by setting the value observed for the REFmix alone, the concentration of which was selected to evoke a […] of ca. 50%, to 0.5. The positive control values (black circles, eight replicates per experimental plate, 25 nM estradiol) are indicated adjacent to the y-axis. […] A black line indicates a LOESS spline fit to the data (A–Q) and a grey line indicates linear regression fit to the data for individual modulators (B–Q). A vertical dotted line is drawn at a mixture concentration of 1.6 µM (A) or at the concentration of each modulator present at that mixture concentration (0.1 uM, B–Q). Visual inspection of the individual modulator results (B–Q) was used to identify possible modulation, i.e. when the experimental data appears to deviate from the linear regression, or when the linear regression is not horizontal, and when the magnitude of the modulation is outside the variation expected in the assay.
# yeast estrogen screen = tested on: yeast estrogen screen; design: method as in PMID 19499261; conditions: cited from earlier work
# T47D-KBluc cells = experiment: cells; conditions: ERLUX
# Experimental: T47D-KBluc cells were obtained from the ATCC and the protocol established by the depositing authors was followed. Cells were routinely grown in RPMI media (with 10% foetal calf serum (FCS)). For seven days prior to experiments, cells were maintained in low estrogen conditions by the use of pre-assay media (RPMI, 10% charcoal-dextran stripped FCS, no antibiotics). For experiments, cells were seeded in white polystyrene 96 well plates at a density of 10,000 cells/well and allowed to attach for 24 hours before removal of media, and application of test chemicals. Test chemicals were dissolved in ethanol to give stock solutions of millimolar concentrations. Test and control solutions were obtained by dilution of ethanolic stocks in dosing media (phenol red-free RPMI, 5% charcoal-dextran stripped FCS, no antibiotics), and in all cases the final concentration of ethanol was 0.5%. The positive control was 1 nM estradiol. Positive and vehicle controls were run as eight replicate wells per plate, and compounds were tested in a dilution series comprising eight concentrations, each concentration tested in triplicate. As recommended by Wilson et al. two additional controls were also included on each plate: 1) vehicle control plus an antiestrogen, ICI 182,780 (1 µM), and 2) positive control plus ICI 182,780 (1 µM). […] A crude measure of toxicity was provided by comparing values for treatments that were not positive, with the value of the vehicle control. […] 24 hours after application of test and control solutions, a volume of Steady-Glo assay reagent (Promega) equal to the volume of culture media was added and plates were incubated for ten minutes, with shaking, to allow for cell lysis. Plates were then loaded into a plate reader (FLUOstar Optima, BMG Labtech) and incubated for a further ten minutes in the dark, followed by measurement of luminescence. To reduce variation, the temperature of the plate reader chamber was maintained at 27°C throughout.
# as §1
# Effect concentrations (ECx) were defined relative to the effects of the estradiol concentration used as the positive control, for example EC50 is the concentration producing an effect of 50% of the positive control (estradiol, 1 nM (ERLUX) or 25 nM (ESCREEN)).
# as §2, with “implicitly.” for “implicitly. However, if the individual concentrations ci are expressed as relative fractions pi to the total mixture concentration ECxMix, then equation 1 can be re-arranged to [drawing 2] (2) which allows the direct calculation of the mixture concentration that is expected to produce the mixture effect X. To form a prediction curve, equation 2 is iterated through for various effect levels resulting in sets of effects and their associated predicted mixture concentration which are then plotted to produce a graph of the effect prediction.”
smiles,measurement,setting,value
"[Cl][Hg][Cl] [HgCl2, Mercury chloride]",Signs of estrogenicity (in words),MCF-7 cells [1],None
same,Signs of toxicity: Possible toxicity at concentration,"MCF-7 cells [1]; decrease in value for treated wells below vehicle controls, assignment not certain",Possible toxicity at 10 µM and greater
same,Modulation of the REFmix effect (in words),MCF-7 cells [2],no indication of negative modulation
same,Observed modulation,MCF-7 cells [2],None
same,"Modulation of the estrogenicity of estradiol or a ternary mixture of estradiol, estrone and estriol (in words)",yeast estrogen screen,no effect
"CCCCC(CC)COC(=O)c1ccccc1C(=O)OCC(CC)CCCC (centres unmarked) [DEHP, Di ethyl hexyl phthalate]",Estrogenicity when tested alone (in words),T47D-KBluc cells,no estrogenicity
same,Concentration at which estrogenicity occurred when tested alone,MCF-7 cells [1],greater than 1 µM
same,Concentration at which toxicity began,MCF-7 cells [1]; before a full estrogenic response was reached,5 µM
same,Signs of toxicity at the highest concentrations (in words),MCF-7 cells [1],decline in response
same,Signs of estrogenicity: Active at concentration,MCF-7 cells [1],Active at 1 µM or higher
same,Modulation of the REFmix effect (in words),MCF-7 cells [2],no indication of negative modulation
same,Observed modulation,MCF-7 cells [2],None
"Nc1ccc([N+](=O)[O-])cc1[N+](=O)[O-] [2,4-dinitroaniline]","Modulation of the estrogenicity of estradiol or a ternary mixture of estradiol, estrone and estriol (in words)",yeast estrogen screen,negative modulation
c1ccc2c(c1)cc1ccc3cccc4ccc2c1c34 [Benzo [a] pyrene],EC10,"T47D-KBluc cells; concentration producing 10% effect relative to positive control 1 nM estradiol, 24 hours",0.862 µM
same,EC25,"T47D-KBluc cells; concentration producing 25% effect relative to positive control 1 nM estradiol, 24 hours",2.06 µM
same,Concentration Response Function θ^∧ max,"T47D-KBluc cells; estimated maximal model asymptote, effect relative to positive control (1 nM estradiol)",0.90
same,Signs of estrogenicity (in words),MCF-7 cells [1],None
same,Estrogenicity when tested alone (in words),MCF-7 cells [1]; listed as BaP,not active; also recorded: not when tested alone
same,Modulation of the REFmix effect (in words),MCF-7 cells [2],clear negative modulation
same,Observed modulation,MCF-7 cells [2],Clear negative
same,Concentration at which complete suppression (full inhibition) of REFmix effect was reached,MCF-7 cells [2],≤ 1 µM
same,Concentration at which complete suppression (full inhibition) of REFmix effect was reached,MCF-7 cells [2]; listed as BaP,around 1 µM
"CCCCOC(=O)c1ccccc1C(=O)OCc1ccccc1 [BBP, Butyl benzyl phthalate]",Estrogenicity when tested alone (in words),T47D-KBluc cells,estrogenic
same,Concentration at which estrogenic activity seen,T47D-KBluc cells; and above,0.1 to 1 µM
same,Toxicity (in words),T47D-KBluc cells; crude measure within the assay / dose-response analysis,evidence for toxicity
same,Signs of toxicity at the highest concentrations (in words),MCF-7 cells [1],decline in response
same,Signs of toxicity: Toxic at concentration,MCF-7 cells [1]; reduction in signal at concentrations above those showing estrogenicity,Toxic at 100 µM
same,Signs of estrogenicity: Active at concentration,MCF-7 cells [1],Active at 1 µM or higher
same,Modulation of the REFmix effect (in words),MCF-7 cells [2],no indication of negative modulation
same,Observed modulation,MCF-7 cells [2],None
"C[C@@H]1C[C@@H]([C@H](O)CC2CC(=O)NC(=O)C2)C(=O)[C@@H](C)C1 [cycloheximide, reference compound]","Modulation of the estrogenicity of estradiol or a ternary mixture of estradiol, estrone and estriol (in words)",yeast estrogen screen,negative modulation
C[S+](C)[O-] [DMSO],"Modulation of the estrogenicity of estradiol or a ternary mixture of estradiol, estrone and estriol (in words)",yeast estrogen screen,no effect
